Test results as given in patent US11286228B2, “Stilbene derivative and method for preparing same” (Ozchela Inc., priority 2016, dated 2022).
Where two headings read alike, the source gives them in different places.

Key:
hepatitis C virus = assay: Antiviral activity in HCV replicon cells (Renilla luciferase); type: cell-based
Method: The antiviral activity of the stilbene derivatives on hepatitis C virus was measured. The replicon cells that stably replicate the hepatitis C virus genome were attached to a culture plate and cultured in a CO2 incubator at 37° C. for 24 hr. The replicon cells cultured for one day were washed with a PBS solution, treated with the compounds of the present invention, and then cultured for 72 hr. The stilbene derivative-treated replicon cells were washed with a cold PBS solution and added with 20 μL of a cell lysis solution so that the cells were lysed in ice for 20 min. 100 μL of a Renilla luciferase substrate was added thereto, after which the luminescence thereof was measured and thus the amount of the hepatitis C virus genome was estimated. The amount of the hepatitis C virus genome in the stilbene derivative-treated replicon cells according to the present invention relative to the amount of the hepatitis C virus genome in dimethylsulfoxide (DMSO)-treated replicon cells is shown.
Compounds 1 to 155 of Tables 1 to 10 may be grouped as follows based on the antiviral activity (EC50) values: […]

cyclophilin = assay: Cis-trans isomerase inhibitory activity (chymotrypsin-coupled Suc-AAPF-pNA cleavage, absorbance 390 nm); type: biochemical
From the text: Chymotrypsin cleaves a trans-type alanine-proline peptide bond. When Suc-AAPF-pNA (a peptide substrate) and chymotrypsin are mixed, the trans-type peptide substrate is cleaved and the cis-type peptide substrate remains. The remaining cis-type peptide substrate is converted into a trans form by a cis-trans isomerase and is then cleaved again by chymotrypsin. When the cis-trans isomerase is present, chymotrypsin is able to cleave a larger amount of trans-type peptide substrate within a predetermined period of time, from which the activity of the cis-trans isomerase may be determined. The amount of the cleaved trans-type peptide substrate is measured using absorbance at 390 nm. Cyclophilin has cis-trans isomerase activity, and accelerates the cleavage of trans-type peptide substrate by chymotrypsin. When the stilbene derivatives of the present invention were treated together with cyclophilin, the cleavage of the peptide substrate by chymotrypsin was not observed to accelerate. Thereby, the stilbene derivatives of the invention can be concluded to inhibit the activity of cyclophilin.

[1] = tested on: mitochondria obtained from hepatocytes; assay: Inhibitory activity on calcium-induced mitochondrial swelling (absorbance 520 nm)
From the text: Cyclophilin is a key protein for forming permeability transition pores (PTP) in mitochondria. When permeability transition pores are formed, mitochondria swell, whereby the outer membrane thereof ruptures and thus cell death progresses. Such mitochondrial dysfunction causes many diseases including neurodegenerative diseases, cancer, and the like. Cyclosporine, a known cyclophilin inhibitor, is capable of preventing the formation of permeability transition pores to thus suppress mitochondrial swelling.
The mitochondrial swelling test was performed as follows. Specifically, the hepatocytes were disrupted using a Dounce tissue grinder. The disrupted cells were centrifuged at 700×g for 10 min and the supernatant was transferred into a new tube. The supernatant was centrifuged at 12,000×g for 15 min, thereby obtaining mitochondria.
When the extracted mitochondria were added with calcium, they swelled, which may be observed by measuring the absorbance at 520 nm. The stilbene derivatives are effective at inhibiting mitochondrial swelling due to calcium.
The activity of Compounds 1 to 155 of Tables 1 to 10 on inhibiting mitochondrial swelling may be determined based on IC50 values, and may be grouped as follows: […]

[2] = HCV replicon cells, 72 hr, Renilla luciferase, relative to DMSO, read-out: Test Example 3: antiviral activity (EC50)
[3] = cyclophilin, chymotrypsin, Suc-AAPF-pNA, read-out: Test Example 1: cis-trans isomerase inhibitory activity (IC50)
[4] = calcium-induced swelling of extracted mitochondria, read-out: Test Example 4: inhibiting mitochondrial swelling (IC50)
[5] = Hepatitis C virus, HCV replicon cells, 72 hr, Renilla luciferase, relative to DMSO, read-out: Test Example 3: antiviral activity (EC50)
[6] = Hepatocyte, calcium-induced swelling of extracted mitochondria, read-out: Test Example 4: inhibiting mitochondrial swelling (IC50)
[7] = Hepatitis C virus, HCV replicon cells, read-out: Test Example 3: antiviral activity (EC50) group
[8] = read-out: Test Example 1: cis-trans isomerase inhibitory activity (IC50) group
[9] = Hepatocyte, read-out: Test Example 4: activity on inhibiting mitochondrial swelling (IC50) group

Compound | IC50 (cyclophilin; [3]) [µM] | EC50 (hepatitis C virus; [5]) [µM] | IC50 [1, 6] [µM] | also measured
N#CC(=Cc1ccccc1OCC1CC1)c1ccc([N+](=O)[O-])cc1 [Compound 27] | 0.02 to 0.2 | – | – | EC50 (hepatitis C virus; [2]): 0.5 to 5 µM; IC50 [1, 4]: 5 to 50 µM
CC(=Cc1ccccc1C(=O)OCc1ccccc1)c1ccc(CC(C)(C)C)cc1 [Compound 92] | 0.02 to 0.2 | 0.5 to 5 | 5 to 50 | –
CC(C)(C)Cc1ccc(C(I)=Cc2ccccc2C(=O)OCC2CCCCC2)cc1 [Compound 119] | ≤ 0.02 | < 0.5 | < 5 | –
CCCCOC(=O)c1ccccc1C=C(N)c1ccc(CC(C)(C)C)cc1 [Compound 98] | 0.02 to 0.2 | 0.5 to 5 | 5 to 50 | –
CCCCOC(=O)c1cnccc1C=Cc1ccc(CC(C)(C)C)cc1 [Compound 146] | – | – | – | EC50 (hepatitis C virus; [7]): 0.5 to 5 µM; IC50 (cyclophilin; [8]): 0.02 to 0.2 µM; IC50 [1, 9]: 5 to 50 µM
CC(C)(C)Cc1ccc(C=Cc2cc(O)ccc2C(=O)O)cc1 [Compound 153] | – | – | – | EC50 (hepatitis C virus; HCV replicon cells, read-out: Test Example 3: antiviral activity (EC50) group): 0.5 to 5 µM; IC50 (cyclophilin; [8]): 0.02 to 0.2 µM; IC50 ([1]; read-out: Test Example 4: activity on inhibiting mitochondrial swelling (IC50) group): 5 to 50 µM
N#CC(=Cc1ccccc1CCc1ccc(N)cc1)c1ccc([N+](=O)[O-])cc1 [Compound 53] | 0.02 to 0.2 | 0.5 to 5 | 5 to 50 | –
CC(c1ccc(C(C#N)=Cc2ccccc2C(=O)O)cc1)C(C)(C)C (stereo not drawn) [Compound 56] | 0.02 to 0.2 | 0.5 to 5 | 5 to 50 | –
N#CC(=Cc1ccccc1C(=O)O)c1ccc(CCC2CC2)cc1 [Compound 62] | ≤ 0.02 | < 0.5 | < 5 | –
N#CC(=Cc1ccccc1C(=O)O)c1ccc(Cc2ccccc2)cc1 [Compound 21] | ≤ 0.02 | – | – | EC50 (hepatitis C virus; [2]): < 0.5 µM; IC50 [1, 4]: < 5 µM
CCCCCc1ccc(C=Cc2ccccc2C(=O)OCCCC)cc1 [Compound 132] | ≤ 0.02 | < 0.5 | < 5 | –
N#CC(=Cc1ccccc1CCc1ccccc1Cl)c1ccc([N+](=O)[O-])cc1 [Compound 46] | 0.02 to 0.2 | 0.5 to 5 | 5 to 50 | –
N#CC(=Cc1ccccc1Cc1c(Cl)cccc1Cl)c1ccc([N+](=O)[O-])cc1 [Compound 37] | 0.02 to 0.2 | 0.5 to 5 | 5 to 50 | –
CCCCOC(=O)c1c(C=C(F)c2ccc(CC(C)(C)C)cc2)ccc(C)c1C [Compound 116] | ≤ 0.02 | < 0.5 | < 5 | –
CC(C)Cc1ccccc1C=C(C#N)c1ccc([N+](=O)[O-])cc1 [Compound 34] | 0.2 to 2 | 5 to 50 | 50 to 500 | –
COc1ccccc1C=C(C#N)c1ccc(C(C)(C)C)cc1 [Compound 11] | 0.2 to 2 | 5 to 50 | 50 to 500 | –
CC(C)C(C)c1ccc(C(C#N)=Cc2ccccc2C(=O)O)cc1 (stereo not drawn) [Compound 55] | 0.02 to 0.2 | 0.5 to 5 | 5 to 50 | –
CC(C)(C)CCc1ccc(C(C#N)=Cc2ccccc2C(=O)O)cc1 [Compound 57] | ≤ 0.02 | < 0.5 | < 5 | –
CC(C)(C)Cc1ccc(C=Cc2c(N)cccc2C(=O)O)cc1 [Compound 151] | – | – | – | EC50 (hepatitis C virus; [7]): < 0.5 µM; IC50 (cyclophilin; [8]): ≤ 0.02 µM; IC50 [1, 9]: < 5 µM
CC(C)(C)Cc1ccc(C=Cc2c(O)cccc2C(=O)O)cc1 [Compound 150] | – | – | – | EC50 (hepatitis C virus; [7]): < 0.5 µM; IC50 (cyclophilin; [8]): ≤ 0.02 µM; IC50 [1, 9]: < 5 µM
CC(C)(C)Cc1ccc(C(C#N)=Cc2ccccc2C(=O)O)cc1 [Compound 54] | ≤ 0.02 | < 0.5 | < 5 | –
Cc1ccc(C(C#N)=Cc2ccccc2N(C)C)cc1 [Compound 1] | 0.2 to 2 | 5 to 50 | 50 to 500 | –
CCCCOC(=O)c1ccccc1C=Cc1ccc(CC(C)(C)C)cc1C [Compound 67] | 0.02 to 0.2 | 0.5 to 5 | 5 to 50 | –
CCCCOC(=O)c1ccccc1C=C(F)c1ccc(CC(C)(C)C)cc1 [Compound 112] | ≤ 0.02 | < 0.5 | < 5 | –

Compound | IC50 (cyclophilin; [3]) [µM] | EC50 (hepatitis C virus; [5]) [µM] | IC50 [1, 6] [µM] | also measured
CCOc1ccc(C(C#N)=Cc2ccccc2C(=O)O)cc1 [Compound 17] | 0.2 to 2 | – | – | EC50 (hepatitis C virus; [2]): 5 to 50 µM; IC50 [1, 4]: 50 to 500 µM
CC(C)(C)C(=O)c1ccc(C(C#N)=Cc2ccccc2C(=O)O)cc1 [Compound 15] | 0.2 to 2 | – | – | EC50 (hepatitis C virus; [2]): 5 to 50 µM; IC50 [1, 4]: 50 to 500 µM
CCCCOC(=O)c1c(C=Cc2ccc(CC(C)(C)C)cc2)ccc(C)c1C [Compound 70] | 0.02 to 0.2 | 0.5 to 5 | 5 to 50 | –
CCCCOc1ccc(C(C#N)=Cc2ccccc2OC)cc1 [Compound 18] | 0.02 to 0.2 | 0.5 to 5 | 5 to 50 | –
CC(C)(C)Cc1ccc(C=Cc2ccccc2C(=O)OC2CCCCC2)cc1 [Compound 77] | 0.02 to 0.2 | 0.5 to 5 | 5 to 50 | –
COC(=O)c1ccccc1C=Cc1ccc(CC(C)(C)C)cc1 [Compound 124] | ≤ 0.02 | < 0.5 | < 5 | –
N#CC(=Cc1ccccc1CC1CCCCC1)c1ccc([N+](=O)[O-])cc1 [Compound 41] | ≤ 0.02 | < 0.5 | < 5 | –
CCCCCc1ccc(C=Cc2ccccc2C(=O)OC)cc1 [Compound 130] | ≤ 0.02 | < 0.5 | < 5 | –
CC(C)(C)Cc1ccccc1C=C(C#N)c1ccc([N+](=O)[O-])cc1 [Compound 35] | 0.02 to 0.2 | 0.5 to 5 | 5 to 50 | –
CC(C)(C)Cc1ccc(C=Cc2ccccc2C(=O)OCC2CCCCN2)cc1 (stereo not drawn) [Compound 75] | 0.02 to 0.2 | 0.5 to 5 | 5 to 50 | –
CCCCOC(=O)c1c(C=C(C)c2ccc(CC(C)(C)C)cc2)ccc(C)c1C [Compound 86] | 0.02 to 0.2 | 0.5 to 5 | 5 to 50 | –
CCCCCOC(=O)c1ccccc1C=Cc1ccc(CC(C)(C)C)cc1 [Compound 72] | ≤ 0.02 | – | – | EC50 (hepatitis C virus; [2]): < 0.5 µM; IC50 [1, 4]: < 5 µM
CCCCOC(=O)c1ccccc1C=C(N)c1ccc(CC(C)CC)cc1 (stereo not drawn) [Compound 108] | 0.02 to 0.2 | 0.5 to 5 | 5 to 50 | –
CN(C)CCCOc1cccc(C=C(C#N)c2ccc([N+](=O)[O-])cc2)c1 [Compound 33] | 0.2 to 2 | 5 to 50 | 50 to 500 | –
CCCCOC(=O)c1ccccc1C=C(N)c1ccc(CC(C)(C)C)cc1C [Compound 100] | 0.02 to 0.2 | 0.5 to 5 | 5 to 50 | –
CCCCOC(=O)c1ccccc1C=C(I)c1ccc(Cc2ccccc2)cc1 [Compound 123] | 0.02 to 0.2 | – | 5 to 50 | EC50 (hepatitis C virus; Hepatitis C virus, 72 h, read-out: Test Example 3: antiviral activity (EC50)): 0.5 to 5 µM
N#CC(=Cc1ccccc1CCCC1CCCCC1)c1ccc([N+](=O)[O-])cc1 [Compound 40] | ≤ 0.02 | < 0.5 | < 5 | –
N#CC(=Cc1ccccc1N)c1ccc([N+](=O)[O-])cc1 [Compound 24] | 0.2 to 2 | 5 to 50 | 50 to 500 | –
CCCCOC(=O)c1c(C)cccc1C=C(C)c1ccc(CC(C)(C)C)cc1 [Compound 83] | 0.02 to 0.2 | 0.5 to 5 | 5 to 50 | –
CCCCOC(=O)c1ccccc1C=Cc1ccc(CC(C)C)cc1 [Compound 131] | ≤ 0.02 | < 0.5 | < 5 | –
CCCCOC(=O)c1cc(C)ccc1C=Cc1ccc(CC(C)(C)C)cc1 [Compound 69] | 0.02 to 0.2 | 0.5 to 5 | 5 to 50 | –
CCCCOC(=O)c1c(C=C(N)c2ccc(CC(C)(C)C)cc2)ccc(C)c1C [Compound 102] | 0.02 to 0.2 | 0.5 to 5 | 5 to 50 | –
CC(C)(C)Cc1ccc(C=Cc2ccccc2C(=O)OCc2ccccc2)cc1 [Compound 76] | ≤ 0.02 | < 0.5 | < 5 | –
